Measurements: ChEMBL document CHEMBL3045072, “Anti-tyrosinase, antioxidant and antimicrobial activities of hydroxycinnamoylamides” (Med Chem Res, 2013)
≈ marks a conversion by molar mass, not a printed value. Calls of active or inactive are those of the source. The rule behind the calls is not given here.

Tests used:
Staphylococcus aureus = assay: Antimicrobial activity against Staphylococcus aureus 209 assessed as growth inhibition after 24 hr by serial dilution method; assay type: functional; settings: Staphylococcus aureus, 209, 24 h
Streptococcus pyogenes = assay: Antimicrobial activity against Streptococcus pyogenes 10535 assessed as growth inhibition after 24 hr by serial dilution method; assay type: functional; settings: Streptococcus pyogenes, 10535, 24 h
[1] = Inhibition of autoxidation of pure triacylglycerols of sunflower oil at 1 mM by iodometric analysis; assay type: toxicity; settings: 1000 µM
[2] = tested on: Radical scavenging activity; assay: Antioxidant activity assessed as DPPH radical scavenging activity at 1.8 mM after 10 min; assay type: functional
[3] = tested on: Radical scavenging activity; assay: Antioxidant activity assessed as DPPH radical scavenging activity at 3.6 mM after 20 min; assay type: functional
[4] = target: T1, Tyrosinase (Agaricus bisporus) (UniProt O42713); assay: Inhibition of monophenolase activity of mushroom tyrosinase using L-tyrosine as substrate after 30 min by dopachrome method
T1 sequence (whole entry): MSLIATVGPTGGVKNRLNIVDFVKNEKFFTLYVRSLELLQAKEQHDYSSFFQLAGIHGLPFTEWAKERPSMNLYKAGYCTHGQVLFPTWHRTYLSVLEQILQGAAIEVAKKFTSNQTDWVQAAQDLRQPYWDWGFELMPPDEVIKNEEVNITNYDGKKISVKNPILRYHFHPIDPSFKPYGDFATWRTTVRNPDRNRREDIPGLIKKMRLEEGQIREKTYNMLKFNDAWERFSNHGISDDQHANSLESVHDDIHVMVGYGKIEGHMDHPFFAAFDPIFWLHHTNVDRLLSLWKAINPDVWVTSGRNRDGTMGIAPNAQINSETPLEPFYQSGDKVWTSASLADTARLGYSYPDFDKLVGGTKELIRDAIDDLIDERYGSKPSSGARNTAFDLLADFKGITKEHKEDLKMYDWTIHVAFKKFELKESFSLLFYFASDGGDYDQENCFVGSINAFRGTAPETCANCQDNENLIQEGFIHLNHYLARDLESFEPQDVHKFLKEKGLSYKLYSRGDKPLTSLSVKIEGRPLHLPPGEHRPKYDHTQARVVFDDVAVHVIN

[5] = tested on: Radical scavenging activity; assay: Antioxidant activity assessed as DPPH radical scavenging activity at 3.6 mM after 10 min; assay type: functional
[6] = tested on: Radical scavenging activity; assay: Antioxidant activity assessed as DPPH radical scavenging activity at 1.8 mM after 20 min; assay type: functional
[7] = tested on: Radical scavenging activity; assay: Antioxidant activity assessed as DPPH radical scavenging activity at 0.9 mM after 10 min; assay type: functional
[8] = tested on: Radical scavenging activity; assay: Antioxidant activity assessed as DPPH radical scavenging activity at 0.9 mM after 20 min; assay type: functional

Row | SMILES | MIC (Staphylococcus aureus) | MIC (Streptococcus pyogenes) | inhibition (INH) [1] | Activity [2] | Activity [3] | inhibition [4] | Activity [5] | Activity [6] | Activity [7] | Activity [8]
1 | COc1cc(/C=C/C(=O)NCCc2ccc(O)cc2)cc(OC)c1O [TRANS-N-SINAPOYLTYRAMINE] | 62.5 µg/mL (≈ 182 µM) | 62.5 µg/mL (≈ 182 µM) | Active |  |  |  |  |  |  | 
2 | COC(=O)[C@H](Cc1ccc(O)cc1)NC(=O)/C=C/c1ccc(O)cc1 |  |  |  | 1.04% | 1.88% | Active | 1.44% | 1.42% | 0.64% | 0.71%
3 | COc1cc(/C=C/C(=O)NCCc2ccc(O)c(O)c2)ccc1O [N-TRANS-FERULOYLDOPAMINE] | 62.5 µg/mL (≈ 190 µM) | 125 µg/mL (≈ 380 µM) |  |  |  |  |  |  |  | 
4 | NC[C@H]1O[C@H](O[C@H]2[C@H](O)[C@@H](O[C@H]3O[C@H](CO)[C@@H](O)[C@H](N)[C@H]3O)[C@H](N)C[C@@H]2N)[C@H](N)C[C@@H]1O [TOBRAMYCIN] | 15.6 µg/mL (≈ 33.4 µM) | 7.81 µg/mL (≈ 16.7 µM) |  |  |  |  |  |  |  | 
5 | O=C(O)/C=C/c1ccc(O)cc1 [COUMARIC ACID] |  |  | Not Active | 3.7% | 6.1% | Active | 4.5% | 4.7% | 2.1% | 2.9%
6 | COc1cc(/C=C/C(=O)N[C@@H](Cc2ccccc2)C(=O)OC(C)(C)C)cc(OC)c1O |  |  |  | 25% | 50.6% |  | 46.8% | 28.2% | 13.7% | 16.7%
7 | COC(=O)[C@H](Cc1ccccc1)NC(=O)/C=C/c1ccccc1 |  |  |  | 2.39% | 2.58% |  | 2.18% | 2.6% | 2% | 2.52%
8 | COc1cc(/C=C/C(=O)NCCc2c[nH]c3ccccc23)cc(OC)c1O | 250 µg/mL (≈ 682 µM) | 62.5 µg/mL (≈ 171 µM) |  |  |  |  |  |  |  | 
9 | CC(C)(C)OC(=O)[C@H](Cc1ccccc1)NC(=O)/C=C/c1ccc(O)cc1 |  |  |  | 1.89% | 2.92% |  | 2.46% | 2.23% | 1.97% | 2.3%
10 | COC(=O)[C@H](Cc1ccc(O)cc1)NC(=O)/C=C/c1ccc(O)c(O)c1 |  |  |  | 51% | 90.2% |  | 89.6% | 52.5% | 27.4% | 28.7%
11 | COC(=O)[C@H](Cc1c[nH]c2ccccc12)NC(=O)/C=C/c1ccccc1 |  |  |  | 1.2% | 1.48% |  | 1.18% | 1.41% | 0.79% | 0.69%
12 | COC(=O)[C@H](Cc1c[nH]c2ccccc12)NC(=O)/C=C/c1ccc(O)cc1 |  |  |  | 1.69% | 2.88% |  | 2.42% | 2.37% | 1.92% | 2.13%
13 | O=C(/C=C/c1ccc(O)cc1)NCCc1ccc(O)cc1 |  |  |  |  |  | Active |  |  |  | 
14 | COC(=O)[C@H](Cc1ccccc1)NC(=O)/C=C/c1ccc(O)c(O)c1 [N-CAFFEOYL-PHENYLALANINE METHYL ESTER] |  |  | Active | 53.5% | 90.5% |  | 90.3% | 54.6% | 28.8% | 29.7%
15 | COC(=O)[C@H](Cc1c[nH]c2ccccc12)NC(=O)/C=C/c1ccc(O)c(O)c1 |  | 250 µg/mL (≈ 657 µM) | Active | 44.6% | 87.9% |  | 80.1% | 50.4% | 27.1% | 28.7%
16 | O=C(/C=C/c1ccc(O)cc1)NCCc1ccc(O)c(O)c1 |  |  |  |  |  | Active |  |  |  | 
17 | COC(=O)[C@H](Cc1ccc(O)c(O)c1)NC(=O)/C=C/c1ccccc1 [N-CINNAMOYL-DOPA METHYL ESTER] |  |  | Active | 45.5% | 88.1% |  | 85% | 48.4% | 24.4% | 26.6%
18 | O=C(O)/C=C/c1ccc(O)c(O)c1 [CAFFEIC ACID] | 125 µg/mL (≈ 694 µM) | 125 µg/mL (≈ 694 µM) | Active | 62.1% | 91.8% |  | 88% | 64.3% | 33.5% | 34.1%

Row | SMILES | MIC (Staphylococcus aureus) | MIC (Streptococcus pyogenes) | inhibition (INH) [1] | Activity [2] | Activity [3] | inhibition [4] | Activity [5] | Activity [6] | Activity [7] | Activity [8]
19 | COC(=O)[C@H](Cc1ccc(O)cc1)NC(=O)/C=C/c1cc(OC)c(O)c(OC)c1 | 125 µg/mL (≈ 311 µM) | 250 µg/mL (≈ 623 µM) |  | 23.1% | 45.3% |  | 43% | 25% | 14.2% | 15.6%
20 | COC(=O)[C@H](Cc1ccc(O)c(O)c1)NC(=O)/C=C/c1cc(OC)c(O)c(OC)c1 |  |  | Active | 43.9% | 82.8% |  | 80.9% | 45.8% | 23.8% | 25.4%
21 | O=C(/C=C/c1ccc(O)c(O)c1)NCCc1c[nH]c2ccccc12 | 125 µg/mL (≈ 388 µM) | 62.5 µg/mL (≈ 194 µM) |  |  |  |  |  |  |  | 
22 | COc1cc(/C=C/C(=O)NCCc2ccc(O)cc2)ccc1O [N-TRANS-FERULOYL TYRAMINE] | 62.5 µg/mL (≈ 199 µM) | 125 µg/mL (≈ 399 µM) |  |  |  |  |  |  |  | 
23 | COC(=O)[C@H](Cc1ccc(O)c(O)c1)NC(=O)/C=C/c1ccc(O)c(OC)c1 | 125 µg/mL (≈ 323 µM) |  |  | 44.8% | 87% |  | 83.8% | 50.6% | 24.3% | 28.5%
24 | COC(=O)[C@H](Cc1c[nH]c2ccccc12)NC(=O)/C=C/c1ccc(O)c(OC)c1 |  |  |  | 14.5% | 30.9% |  | 26.4% | 17.4% | 7.96% | 9.76%
25 | COC(=O)[C@H](Cc1ccc(O)c(O)c1)NC(=O)/C=C/c1ccc(O)c(O)c1 [N-CAFFEOYL-DOPA METHYL ESTER] |  |  | Active | 82.5% | 88.8% |  | 88.7% | 86% | 44.8% | 50.5%
26 | COC(=O)[C@H](Cc1ccc(O)cc1)NC(=O)/C=C/c1ccc(O)c(OC)c1 | 15 µg/mL (≈ 40.4 µM) |  |  | 13.7% | 29.2% |  | 24.8% | 16.2% | 7.04% | 8.79%
27 | O=C(O)/C=C/c1ccccc1 [CINNAMIC ACID] |  |  | Not Active | 0.32% | 0.35% |  | 0.32% | 0.35% | 0.3% | 0.32%
28 | COC(=O)[C@H](Cc1ccc(O)c(O)c1)NC(=O)/C=C/c1ccc(O)cc1 |  |  | Active | 33.3% | 67.1% | Active | 64.4% | 34.8% | 18% | 19.1%
29 | Oc1ccc(O)cc1 |  |  |  |  |  | Active |  |  |  | 
30 | COc1cc(/C=C/C(=O)O)ccc1O [FERULATE] | 125 µg/mL (≈ 644 µM) | 125 µg/mL (≈ 644 µM) | Active | 21% | 44.3% |  | 36.7% | 25.1% | 12.6% | 13.8%
31 | COc1cc(/C=C/C(=O)O)cc(OC)c1O [SINAPINATE] | 125 µg/mL (≈ 558 µM) | 125 µg/mL (≈ 558 µM) | Active | 26.5% | 69.6% |  | 69% | 31.9% | 16.1% | 17.2%
32 | COC(=O)[C@H](Cc1ccc(O)cc1)NC(=O)/C=C/c1ccccc1 |  |  |  | 2.05% | 2.57% |  | 2.12% | 2.3% | 1.74% | 2.12%
33 | O=c1c(O)c(-c2ccc(O)c(O)c2)oc2cc(O)cc(O)c12 |  |  |  | 46.7% | 78% |  | 76% | 58.4% | 40.4% | 45.2%
34 | COC(=O)[C@H](Cc1c[nH]c2ccccc12)NC(=O)/C=C/c1cc(OC)c(O)c(OC)c1 |  | 250 µg/mL (≈ 589 µM) |  | 26% | 49.9% |  | 48.1% | 27.3% | 13.7% | 14.6%
35 | COc1cc(/C=C/C(=O)N[C@@H](Cc2ccccc2)C(=O)OC(C)(C)C)ccc1O |  |  |  | 19.5% | 36.9% |  | 30.4% | 23.6% | 10.9% | 13.5%
36 | Cc1c(C)c2c(c(C)c1O)CCC(C)(CCCC(C)CCCC(C)CCCC(C)C)O2 (racemic) |  |  |  | 40.8% | 73.3% |  | 62.9% | 46.8% | 23.2% | 24.8%
